Measured values published in patent publication EP3928779A1 (Chugai Seiyaku Kabushiki Kaisha, priority 2014, dated 2016).

These molecules were tested on rat small-intestinal brush border membrane vesicles (assay: Inhibitory effect on 33PO4 uptake into rat small-intestinal brush border membrane vesicles (rapid filtration method)). Conditions: 33PO4 uptake into rat small-intestinal BBMVs; test compound 1 µM; reacted for 60 seconds.
Type: biochemical
Method in brief: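 Uptake of ^33PO4 was measured by rapid filtration and liquid scintillation counting of filter-retained vesicles, after quenching with ice-cold 110 mM NaCl/1 mM KH2PO4/10 mM HEPES pH 7.5. Vesicles were brush border membranes from the upper small intestine of female Wistar rats aged 4–5 weeks.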

| SMILES | Rate of uptake inhibition (%) (1 µM) |
| --- | --- |
| CN1N(Cc2ccc(OCCCCCOCCCO)c(F)c2F)C(=O)C(C(=O)Nc2ccc(C(F)(F)F)cc2-c2cc(C(F)(F)F)ncn2)=C(O)C12CCCC2 [Example 400] | 36% |
| COCCOCCOc1ccc(CN2C(=O)C(C(=O)Nc3ccc(C(F)(F)F)cc3-c3cc(C(F)(F)F)ncn3)=C(O)C3(CCC3)N2C)c(F)c1F [Example 401] | 39% |
| CN(CCOc1ccc(CN2C(=O)C(C(=O)Nc3ccc(C(F)(F)F)cc3-c3cc(C(F)(F)F)ncn3)=C(O)C3(CCC3)N2C)c(F)c1F)C1COC1 [Example 402, 6-(2,3-Difluoro-4-(2-(methyl(oxetan-3-yl)amino)ethoxy)benzyl)-9-hydroxy-5-methyl-7-oxo-N-(4-(trifluoromethyl)-2-(6-(trifluoromethyl)pyrimidin-4-yl)phenyl)-5,6-diazaspiro[3.5]non-8-ene-8-carboxamide] | 54% |
| CN1N(Cc2ccc(OC3COC3)c(F)c2F)C(=O)C(C(=O)Nc2ccc(C(F)(F)F)cc2-c2cc(C(F)(F)F)ncn2)=C(O)C12CCC2 [Example 403, 6-(2,3-Difluoro-4-(oxetan-3-yloxy)benzyl)-9-hydroxy-5-methyl-7-oxo-N-(4-(trifluoromethyl)-2-(6-(trifluoromethyl)pyrimidin-4-yl)phenyl)-5,6-diazaspiro[3.5]non-8-ene-8-carboxamide] | 71% |
| COCCN1CCC[C@H]1COc1ccc(CN2C(=O)C(C(=O)Nc3ccc(C(F)(F)F)cc3-c3cc(C(F)(F)F)ncn3)=C(O)C3(CCC3)N2C)c(F)c1F [Example 404, 6-[[2,3-Difluoro-4-[[(2S)-1-(2-methoxyethyl)pyrrolidin-2-yl]methoxy]phenyl]methyl]-9-hydroxy-5-methyl-7-oxo-N-[4-(trifluoromethyl)-2-[6-(trifluoromethyl)pyrimidin-4-yl]phenyl]-5,6-diazaspiro[3.5]non-8-ene-8-carboxamide] | 43% |
| COCCN1CC[C@@H](Oc2ccc(CN3C(=O)C(C(=O)Nc4ccc(C(F)(F)F)cc4-c4cc(C(F)(F)F)ncn4)=C(O)C4(CCC4)N3C)c(F)c2F)C1 [Example 405, 6-[[2,3-Difluoro-4-[(3R)-1-(2-methoxyethyl)pyrrolidin-3-yl]oxyphenyl]methyl]-9-hydroxy-5-methyl-7-oxo-N-[4-(trifluoromethyl)-2-[6-(trifluoromethyl)pyrimidin-4-yl]phenyl]-5,6-diazaspiro[3.5]non-8-ene-8-carboxamide] | 30% |
| COCCN1CC(Oc2ccc(CN3C(=O)C(C(=O)Nc4ccc(C(F)(F)F)cc4-c4cc(C(F)(F)F)ncn4)=C(O)C4(CCC4)N3C)c(F)c2F)C1 [Example 406] | 27% |
| CN1N(Cc2ccc(OC(C)(C)CN3CCOCC3)c(F)c2F)C(=O)C(C(=O)Nc2ccc(C(F)(F)F)cc2-c2cc(C(F)(F)F)ncn2)=C(O)C12CCC2 [Example 407, 6-[[2,3-Difluoro-4-(2-methyl-1-morpholin-4-ylpropan-2-yl)oxyphenyl]methyl]-9-hydroxy-5-methyl-7-oxo-N-[4-(trifluoromethyl)-2-[6-(trifluoromethyl)pyrimidin-4-yl]phenyl]-5,6-diazaspiro[3.5]non-8-ene-8-carboxamide] | 30% |
| CC(CN1CCOCC1)Oc1ccc(CN2C(=O)C(C(=O)Nc3ccc(C(F)(F)F)cc3-c3cc(C(F)(F)F)ncn3)=C(O)C3(CCC3)N2C)c(F)c1F (stereo not drawn) [Example 408] | 47% |
| CN1CCC(Oc2ccc(CN3C(=O)C(C(=O)Nc4ccc(C(F)(F)F)cc4-c4cc(C(F)(F)F)ncn4)=C(O)C4(CCC4)N3C)c(F)c2F)CC1 [Example 411] | 32% |
| CN(CCOc1ccc(CN2C(=O)C(C(=O)Nc3ccc(C(F)(F)F)cc3-c3cc(C(F)(F)F)ncn3)=C(O)C3(CCCC3)N2C)c(F)c1F)C1COC1 [Example 412, 7-(2,3-Difluoro-4-(2-(methyl(oxetan-3-yl)amino)ethoxy)benzyl)-10-hydroxy-6-methyl-8-oxo-N-(4-(trifluoromethyl)-2-(6-(trifluoromethyl)pyrimidin-4-yl)phenyl)-6,7-diazaspiro[4.5]dec-9-ene-9-carboxamide] | 52% |
| CN1N(Cc2ccc(OCC3CCCO3)c(F)c2F)C(=O)C(C(=O)Nc2ccc(C(F)(F)F)cc2-c2cc(C(F)(F)F)ncn2)=C(O)C12CCCC2 (stereo not drawn) [Example 413] | 34% |
| CN(C)CC(C)(C)COc1ccc(CN2C(=O)C(C(=O)Nc3ccc(C(F)(F)F)cc3-c3cc(C(F)(F)F)ncn3)=C(O)C3(CCCC3)N2C)c(F)c1F [Example 414, 7-(4-(3-(Dimethylamino)-2,2-dimethylpropoxy)-2,3-difluorobenzyl)-10-hydroxy-6-methyl-8-oxo-N-(4-(trifluoromethyl)-2-(6-(trifluoromethyl)pyrimidin-4-yl)phenyl)-6,7-diazaspiro[4.5]dec-9-ene-9-carboxamide] | 27% |
| COCCN(C)CCNc1ccc(CN2C(=O)C(C(=O)Nc3ccc(C(F)(F)F)cc3-c3cc(C(F)(F)F)ncn3)=C(O)C3(CCCC3)N2C)c(F)c1F [Example 417, 7-(2,3-Difluoro-4-((2-((2-methoxyethyl)(methyl)amino)ethyl)amino)benzyl)-10-hydroxy-6-methyl-8-oxo-N-(4-(trifluoromethyl)-2-(6-(trifluoromethyl)pyrimidin-4-yl)phenyl)-6,7-diazaspiro[4.5]dec-9-ene-9-carboxamide] | 48% |
| CN(C[C@H](O)[C@@H](O)[C@H](O)[C@H](O)CO)C(=O)CCCOc1ccc(CN2C(=O)C(C(=O)Nc3ccc(C(F)(F)F)cc3-c3cc(C(F)(F)F)ncn3)=C(O)C3(CCCC3)N2C)c(F)c1F [Example 418, 7-[[2,3-Difluoro-4-[4-[methyl-[(2S,3R,4R,5R)-2,3,4,5,6-pentahydroxyhexyl]amino]-4-oxobutoxy]phenyl]methyl]-10-hydroxy-6-methyl-8-oxo-N-[4-(trifluoromethyl)-2-[6-(trifluoromethyl)pyrimidin-4-yl]phenyl]-6,7-diazaspiro[4.5]dec-9-ene-9-carboxamide] | 29% |
| CN1N(Cc2ccc(OCCOCCNCC(O)CO)c(F)c2F)C(=O)C(C(=O)Nc2ccc(C(F)(F)F)cc2-c2cc(C(F)(F)F)ncn2)=C(O)C12CCCC2 (stereo not drawn) [Example 419, 7-[[4-[2-[2-(2,3-Dihydroxypropylamino)ethoxy]ethoxy]-2,3-difluorophenyl]methyl]-10-hydroxy-6-methyl-8-oxo-N-[4-(trifluoromethyl)-2-[6-(trifluoromethyl)pyrimidin-4-yl]phenyl]-6,7-diazaspiro[4.5]dec-9-ene-9-carboxamide] | 22% |
| CN(CCOCCOc1ccc(CN2C(=O)C(C(=O)Nc3ccc(C(F)(F)F)cc3-c3cc(C(F)(F)F)ncn3)=C(O)C3(CCCC3)N2C)c(F)c1F)C[C@H](O)[C@@H](O)[C@H](O)[C@H](O)CO [Example 420, 7-[[2,3-Difluoro-4-[2-[2-[methyl-[(2S,3R,4R,5R)-2,3,4,5,6-pentahydroxyhexyl]amino]ethoxy]ethoxy]phenyl]methyl]-10-hydroxy-6-methyl-8-oxo-N-[4-(trifluoromethyl)-2-[6-(trifluoromethyl)pyrimidin-4-yl]phenyl]-6,7-diazaspiro[4.5]dec-9-ene-9-carboxamide] | 19% |
| CN(CCOCCOCCOCCOCCOc1ccc(CN2C(=O)C(C(=O)Nc3ccc(C(F)(F)F)cc3-c3cc(C(F)(F)F)ncn3)=C(O)C3(CCCC3)N2C)c(F)c1F)C[C@@H](O)[C@H](O)[C@@H](O)[C@@H](O)CO [Example 421, 7-[[2,3-Difluoro-4-[2-[2-[2-[2-[2-[methyl-[(2R,3S,4S,5S)-2,3,4,5,6-pentahydroxyhexyl]amino]ethoxy]ethoxy]ethoxy]ethoxy]ethoxy]phenyl]methyl]-10-hydroxy-6-methyl-8-oxo-N-[4-(trifluoromethyl)-2-[6-(trifluoromethyl)pyrimidin-4-yl]phenyl]-6,7-diazaspiro[4.5]dec-9-ene-9-carboxamide] | 24% |
| CN(C[C@H](O)[C@@H](O)[C@H](O)[C@H](O)CO)C(=O)CCOCCOCCOc1ccc(CN2C(=O)C(C(=O)Nc3ccc(C(F)(F)F)cc3-c3cc(C(F)(F)F)ncn3)=C(O)C3(CCCC3)N2C)c(F)c1F [Example 422] | 29% |
| CN(C[C@H](O)[C@@H](O)[C@H](O)[C@H](O)CO)C(=O)CCOCCOCCOCCOc1ccc(CN2C(=O)C(C(=O)Nc3ccc(C(F)(F)F)cc3-c3cc(C(F)(F)F)ncn3)=C(O)C3(CCCC3)N2C)c(F)c1F [Example 423] | 5% |
| CN1N(Cc2ccc(OCCOCCOCCOCCC(=O)NCC(O)CO)c(F)c2F)C(=O)C(C(=O)Nc2ccc(C(F)(F)F)cc2-c2cc(C(F)(F)F)ncn2)=C(O)C12CCCC2 (stereo not drawn) [Example 424] | 17% |
| CN(CCOCCC(=O)N(C)C[C@H](O)[C@@H](O)[C@H](O)[C@H](O)CO)CCOc1ccc(CN2C(=O)C(C(=O)Nc3ccc(C(F)(F)F)cc3-c3cc(C(F)(F)F)ncn3)=C(O)C3(CCCC3)N2C)c(F)c1F [Example 425] | 5% |
| CN(CCOCCC(=O)NCC(O)CO)CCOc1ccc(CN2C(=O)C(C(=O)Nc3ccc(C(F)(F)F)cc3-c3cc(C(F)(F)F)ncn3)=C(O)C3(CCCC3)N2C)c(F)c1F (stereo not drawn) [Example 426] | 24% |
| CN1N(Cc2ccc(OCCOCCNC(=O)[C@@H](O)[C@H](O)[C@@H](O)[C@@H](O)CO)c(F)c2F)C(=O)C(C(=O)Nc2ccc(C(F)(F)F)cc2-c2cc(C(F)(F)F)ncn2)=C(O)C12CCCC2 [Example 427, 7-[[2,3-Difluoro-4-[2-[2-[[(2S,3R,4S,5S)-2,3,4,5,6-pentahydroxyhexanoyl]amino]ethoxy]ethoxy]phenyl]methyl]-10-hydroxy-6-methyl-8-oxoN-[4-(trifluoromethyl)-2-[6-(trifluoromethyl)pyrimidin-4-yl]phenyl]-6,7-diazaspiro[4.5]dec-9-ene-9-carboxamide] | 12% |
